Here are results for five molecules from patent publication US20240408211A1, “COMPOSITIONS AND METHODS OF AMELIORATING AVERSIVENESS OF AVERSIVE STIMULI BY INHIBITION OF PURINERGIC RECEPTORS” (Monell Chemical Senses Center, priority 2021, published 2024).

Like-named read-outs stand apart in the source and are kept apart here.

The conditions of data set [1]: clinical trial; cited from earlier work.
For data set [2] the following is noted: in vivo; cited from earlier work.
The test system of a further data set is rats. The conditions noted are these: cited from earlier work.
For another data set, the system named is patients. The conditions noted are these: cited from earlier work.
In another data set the target is T1, P2X2/3 (Homo sapiens, UniProt P56373+Q9UBL9).
T1 construct: expressed in transfected cells; host or cells: HEK293
T1 sequence (Q9UBL9 1-471): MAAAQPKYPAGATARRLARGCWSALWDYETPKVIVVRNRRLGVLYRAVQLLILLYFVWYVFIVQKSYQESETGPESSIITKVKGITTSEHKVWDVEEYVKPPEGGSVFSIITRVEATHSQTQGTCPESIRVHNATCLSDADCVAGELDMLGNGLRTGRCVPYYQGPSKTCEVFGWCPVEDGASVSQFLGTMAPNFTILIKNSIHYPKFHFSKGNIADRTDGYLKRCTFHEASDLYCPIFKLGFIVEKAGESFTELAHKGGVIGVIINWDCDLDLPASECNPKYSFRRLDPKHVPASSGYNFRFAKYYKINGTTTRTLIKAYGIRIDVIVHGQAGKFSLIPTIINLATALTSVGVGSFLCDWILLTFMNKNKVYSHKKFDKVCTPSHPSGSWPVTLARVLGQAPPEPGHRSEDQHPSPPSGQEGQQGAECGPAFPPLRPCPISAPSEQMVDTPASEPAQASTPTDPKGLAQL
T1 sequence (P56373 1-397): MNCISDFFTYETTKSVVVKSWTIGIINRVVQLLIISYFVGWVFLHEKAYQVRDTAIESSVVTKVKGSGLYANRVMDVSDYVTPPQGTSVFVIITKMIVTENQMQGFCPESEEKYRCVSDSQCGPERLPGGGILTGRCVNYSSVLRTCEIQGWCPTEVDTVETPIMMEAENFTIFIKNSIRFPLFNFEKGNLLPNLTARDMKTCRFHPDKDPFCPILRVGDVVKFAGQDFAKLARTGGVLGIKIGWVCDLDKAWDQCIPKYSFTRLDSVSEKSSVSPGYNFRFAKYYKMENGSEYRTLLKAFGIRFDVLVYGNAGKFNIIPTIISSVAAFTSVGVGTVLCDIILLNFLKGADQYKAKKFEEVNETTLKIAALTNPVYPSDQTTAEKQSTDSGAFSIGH
The experiment in a line: P2X2/3 stable HEK293 cell lines responding to α,β-meATP (screening assay). The format is cell-based. How it is done:
In this study, we built stable cell lines expressing P2X2/3 in HEK293 cells via transfection with either P2X2-Neo or P2X3-Zeo constructs, following which selection was performed using Zeocin, G418. Picked clones were grown out from single cells (cultured continuously in the presence of Zeocin and G418) using cloning rings.
The resulted stable cell lines are used for characterizing putative taste-blockers.

Experimental for humans: In some experiments, we used a regimen of two 1-minute rinses with 500 μM AF-353 composition (i.e., oral topical administration).
In this study, we tested an AF-353 composition in humans as an oral rinse after receiving IRB approval for its use. First, we tested rinsing 100 μM (0.04 mg/mL) orally for 2 minutes as 4×30 sec rinses with expectoration. We tested before and after sour, bitter, sweet, and salty solutions (quinine HCl, NaCl, Praziquantal, sucrose, CO2).
Next, we tested rinsing 500 μM (0.2 mg/mL) AF-353 for two minutes, in 2×1 min increment rinses with expectoration.

With `Cc1cnc(-c2cc(O[C@@H]3CCOC3)cc(C(=O)N[C@H](C)c3cnc(C(F)(F)F)nc3)c2)s1` [eliapixant], the “taste-related adverse events (primarily dysgeusia)” value in data set [1] is recorded as “caused taste-related adverse events”. Moreover, the “effects on ratings of taste intensity measured using taste strips” value in data set [2] was “no concerted effects”.
As to `CNC(=O)c1cc(F)c(-c2nc3cc(C)ccn3c2C[C@@H]2CCCN(C(=O)OC)C2)c(F)c1` [BLU-5937, Methyl (S)-3-((2-(2,6-difluoro-4-(methylcarbamoyl)phenyl)-7-methylimidazo[1,2-a]pyridin-3-yl)methyl)piperidine-1-carboxylate], the influence on taste result with rats (rat, 10-20 mg/kg intraperitoneally) is “did not influence taste”. The “behaviour towards 0.3 mM quinine hydrochloride in two-bottle choice” value in the data set on rats (rats, 10 or 20 mg/kg ip, 15-min test) is given as “avoided the quinine”.
As for `O=C(NCC12CC3CC(CC(C3)C1)C2)c1cc(CCCNCCCO)ccc1Cl` [AZD-9056], the taste block result with humans (various concentration, negative control composition) was “did not block taste”.
Turning to `COc1cc(C(C)C)c(Oc2cnc(N)nc2N)cc1S(N)(=O)=O` [AF-219, 5-[(2,4-diaminopyrimidin-5-yl)oxy]-2-methoxy-4-(propan-2-yl)benzene-1-sulfonamide], the taste block entry in the data set with humans (500 μM, preliminary test) is “did not block taste”. For the same molecule, the taste disturbances result was “taste disturbances in all patients tested” in the data set with patients (600 mg twice daily) and “also cause taste disturbances, albeit less severe” in the data set on patients (doses as low as 7.5-50 mg twice daily).
One may read the IC50 as the concentration at which inhibition is half-maximal. A lower IC50 goes with inhibition by little substance. Take `Nc1ncnc2c1ncn2[C@@H]1O[C@H](COP(=O)(O)CP(=O)(O)OP(=O)(O)O)[C@@H](O)[C@H]1O` [α,β-meATP]: the IC50 was 2.01 µM at P2X2/3 (P2X2/3 stable Line 2); 2.1 µM on P2X2/3 (P2X2/3 stable Line 6); 3.93 µM against P2X2/3 (P2X2/3 stable Line 9); 1.78 µM against P2X2/3 (P2X2/3 stable Line 12); 2.75 µM at P2X2/3 (P2X2/3 stable Line 24).
